# Laboratory results reported in patent US5164300A, “Method for determining activity of retroviral protease” (Washington University, priority 1990, dated 1992).
# Where a SMILES comes first, the peptide text is derived from it. [ ]: non-standard residue; d: D form. Phe(4-NO2) = N[C@@H](Cc1ccc([N+](=O)[O-])cc1)C(=O)O; Nle = CCCC[C@H](N)C(=O)O; 2Abz = Nc1ccccc1C(=O)O
# How the values were obtained:
# HIV protease = biological target: T1, HIV protease (HIV-1 M:B_ARV2/SF2, UniProt P03369); assay: HPLC HIV protease assay (cleavage of peptide substrates); type: biochemical, human immunodeficiency virus (HIV)
# T1 construct: synthetic [Aba67,Aba95] homodimer (Schneider and Kent) or cloned enzyme from E. coli, interchangeably
# Description: HPLC Assay. The HPLC HIV protease assay was conducted using either synthetic HIV protease [Schneider and Kent, Cell 54, 363-368 (1988)] in which the two Cys residues (Cys^67, Cys^95) were replaced by the isosteric α-aminobutyric acid to eliminate the complications of free sulfhydryl groups, or cloned material expressed in E. coli. In all cases examined, the cleavage patterns and inhibition results were identical. Synthetic HPLC-purified protease (0.05 mg/ml) was dissolved in assay buffer (20 mM phosphate, 20% glycerol, 0.1% CHAPS, pH 6.4). 20 μl of 0.1 mM substrate was mixed with 20 μl assay buffer and 10 μl of HIV protease stock were added and then incubated at 25° for the desired time. The reaction was stopped by the addition of 50 μl of 10% TFA. The sample was applied to a C18 HPLC column developed with 0.05% TFA for 5 min followed by a gradient of 0- 40% acetonitrile in 40 min. For inhibitor studies, 10 μl of the protease solution was preincubated at 25° for 10 min with the 20 μl of 0.1 mM inhibitor (dissolved in DMSO and diluted to 0.1 mM with assay buffer). Then 20 μl of test substrate, acetyl-Thr-Ile-Met-Met-Gln-Arg-NH2 or Abz-NF^* -6, was added in order to determine inhibition of cleavage. Reactions were stopped and cleavage rates were monitored by HPLC as above. […]
# Fluorescence Assay. Fluorescence measurements on 96-well ELISA plates were made with the Titertek Fluoroskan II, version 3.1. […] Ten μl of a stock solution (0.1 mg/ml) of HIV protease was incubated with five different concentrations of Abz-NF^* -6 in a final volume of 100 μl at 37° C. with the increase in fluorescence monitored in each well every five minutes. […] A standard curve relating changes in fluorescent intensity to changes in concentration of product was used to convert fluorescence changes into molar velocities. […] Sixty μl of 10% TFA was added to stop the reaction and the amount of cleavage determined by HPLC. […] By the amount of substrate remaining, an estimated Ki allows appropriate choice of concentration ranges for the inhibitor for the fluorescence assay.
# [1] = tested on: purified HIV protease expressed in E. coli; conditions: estimated, Nashed et al.; cited from earlier work
# synthetic HIV protease = biological target: T2, synthetic HIV protease (HIV-1 M:B_ARV2/SF2, UniProt P03369); assay: Fluorescence assay, kinetic measurements of cleavage by synthetic HIV protease; type: biochemical, human immunodeficiency virus (HIV)
# T2 construct: homodimer
# Description: Fluorescence Assay. Fluorescence measurements on 96-well ELISA plates were made with the Titertek Fluoroskan II, version 3.1. An excitation filter of 355 nm and an emission filter of 430 nm was used. Ten μl of a stock solution (0.1 mg/ml) of HIV protease was incubated with five different concentrations of Abz-NF^* -6 in a final volume of 100 μl at 37° C. with the increase in fluorescence monitored in each well every five minutes. A stock solution of 1 mM Abz-NF^* -6 in DMSO was used. A standard curve relating changes in fluorescent intensity to changes in concentration of product was used to convert fluorescence changes into molar velocities. In order to predetermine the concentration range for Ki determination of inhibitors, it was found convenient to do a preliminary assay by HPLC. Twenty μl of 0.1 mM inhibitor in assay buffer (pH 6.4) and 10 μl of HIV protease (stock solution of 0.05 mg/ml) were preincubated for 5-10 min at 25° C. Twenty μl of 0.1 mM Abz-NF^* -6 was added and the reaction continued for 1 hour. Sixty μl of 10% TFA was added to stop the reaction and the amount of cleavage determined by HPLC. […] By the amount of substrate remaining, an estimated Ki allows appropriate choice of concentration ranges for the inhibitor for the fluorescence assay.
# The chromogenic substrates of Nashed et al., Biochem. Biophys. Res. Commun. 163, 1079-1085 (1989), had Km 's estimated to be greater than […].
smiles,measurement,setting,value
CCCC[C@H](NC(=O)[C@@H](NC(=O)c1ccccc1N)[C@@H](C)CC)C(=O)N[C@@H](Cc1ccc([N+](=O)[O-])cc1)C(=O)N[C@@H](CCC(N)=O)C(=O)N[C@@H](CCCNC(=N)N)C(N)=O [Abz-Ile-Nle-Phe(p-NO2)-Gln-Arg-NH2] (H-[2Abz]I[Nle][Phe(4-NO2)]QR-NH2),cleavage efficiency,"HIV protease; analog with the Abz group at position P3, compared with Abz-NF*-6",dramatically reduced
CC(C)C[C@H](NC(=O)[C@@H]1CCCN1C(=O)[C@H](Cc1ccc([N+](=O)[O-])cc1)NC(=O)[C@H](C)NC(=O)[C@H](CCC(N)=O)NC(=O)[C@H](Cc1ccccc1)NC(=O)[C@@H](N)[C@@H](C)O)C(=O)N[C@@H](CCCNC(=N)N)C(=O)N[C@@H](C)C(=O)O [H-Thr-Phe-Gln-Ala-Phe(p-NO2)-Pro-Leu-Arg-Ala-OH] (H-TFQA[Phe(4-NO2)]PLRA-OH),ratio Kcat /Km,[1],"~23,000 M^-1 s^-1"
CCCC[C@H](NC(=O)[C@@H](NC(=O)[C@@H](NC(C)=O)[C@@H](C)O)[C@@H](C)CC)C(=O)N[C@@H](Cc1ccc([N+](=O)[O-])cc1)C(=O)N[C@@H](CCC(N)=O)C(=O)N[C@@H](CCCNC(=N)N)C(N)=O [Ac-Thr-Ile-Nle-Phe(p-NO2)-Gln-Arg-NH2] (Ac-TI[Nle][Phe(4-NO2)]QR-NH2),cleavage under the conditions of HPLC assay,HIV protease; incubation times of one hour,showed cleavage
"CCCC[C@H](NC(=O)[C@@H](NC(=O)[C@@H](NC(=O)c1ccccc1N)[C@@H](C)O)[C@@H](C)CC)C(=O)N[C@@H](Cc1ccc([N+](=O)[O-])cc1)C(=O)N[C@@H](CCC(N)=O)C(=O)N[C@@H](CCCNC(=N)N)C(N)=O [Abz-NF^* -6, Abz-Thr-Ile-Nle-Phe(p-NO2)-Gln-Arg-NH2] (H-[2Abz]TI[Nle][Phe(4-NO2)]QR-NH2)",amount of cleavage determined by HPLC,"HIV protease; 0.1 mM substrate, 1 hour, in the absence of inhibition",complete cleavage
same,Km,"synthetic HIV protease; Lineweaver-Burk plot, velocities from the linear phase",110 µM
same,Kcat,synthetic HIV protease; synthetic HIV protease,2.9 s⁻¹
same,Vmax,synthetic HIV protease; synthetic HIV protease,3.45 mM-mil^-1
same,ratio Kcat /Km,synthetic HIV protease; synthetic HIV protease,"26,364 M^-1 s^-1"
